# In patent US8993768B2, “Tropolone compounds for treating or preventing retroviral infection” (The United States of America, as represented by the …, priority 2011, dated 2015):
# Like-named read-outs stand apart in the source and are kept apart here.
# Tests used:
# [1] = biological target: T1, HIV-1 RNase H (p66/p51 HIV-1 RT) (Human immunodeficiency virus type 1 group M subtype B, UniProt P04585); test: High throughput RNase H assay on sequence-independent RNA/DNA hybrid; type: biochemical; conditions: read-out: In vitro IC50
# T1 construct: RT is a p66/p51 heterodimer comprised of asymmetrically-organized subunits processed from the 165 kDa gag/pol polyprotein precursor; (His)6; made in house; host or cells: Escherichia coli
# Protocol: IC50 values were determined as previously reported (Budihas, S. R., et al., Nucleic Acids Res., 33(4):1249-56 (2005)), using an 18-nucleotide 3′-flourescein-labeled RNA annealed to a complementary 18-nucleotide 5′-dabsyl-labeled DNA. […] The reaction was initiated by adding 1 μl of 100 mM MgCl2 to 9 μl of mixture containing 4 ng enzyme, 200 nM substrate, 20 μM α-hydroxytropolones in 50 mM Tris, pH 8.0, 80 mM KCl, 2 mM DTT, and 10% DMSO at 37° C., and quenched with 10 μl of a gel-loading buffer after 10 minutes. Hydrolysis products were fractionated by denaturing polyacrylamide gel electrophoresis and visualized by fluorescent imaging (Typhoon Trio+, GE Healthcare, Piscataway, N.J.). […]
# [2] = system: HIV-1 virus strain RF in CEM-SS cells; test: HIV-1 cytopathicity assay; type: cell-based; conditions: for Virus Replication EC50, protective effect class: tested up to 50 μM; for EC50: read-out: Virus Replication EC50
# Protocol: This assay was conducted as previously reported (Weislow, O, S., et al., J. Natl. Cancer Inst., 81(8):577-86 (1989)). Samples were dissolved in DMSO at 10 mM and diluted to a final high concentration of 50 μM in the 96-well assay plate, with 2-fold dilutions made to a low concentration of about 0.78 μM. All samples were tested in duplicate. The HIV-1 virus strain RF was used to infect CEM-SS cells. Compound cytotoxicity was measured in the same assay plate using uninfected cells. Regression analysis was used to estimate the effective concentration (EC50) as well as the cytotoxic concentration (CC50).
# [3] = Compound cytotoxicity in uninfected cells (same assay plate); type: cell-based; conditions: human, uninfected CEM-SS cells; read-out: Virus Replication CC50
# Protocol: (§1) All samples were tested in duplicate. The HIV-1 virus strain RF was used to infect CEM-SS cells. Compound cytotoxicity was measured in the same assay plate using uninfected cells. Regression analysis was used to estimate the effective concentration (EC50) as well as the cytotoxic concentration (CC50).
# [4] = biological target: T2, HIV-1 RT RNase H (Human immunodeficiency virus type 1 group M subtype B, UniProt P04585); test: Cleavage of the HIV-1 polypurine tract (PPT) primer, PPT/U3 junction; type: biochemical; conditions: 20 μM inhibitor
# T2 construct: RT is a p66/p51 heterodimer comprised of asymmetrically-organized subunits processed from the 165 kDa gag/pol polyprotein precursor; (His)6; made in house; host or cells: Escherichia coli
# Protocol: FIG. 2A depicts a schematic model of RNA/DNA substrate, indicating the RNase H cleavage site at the PPT/U3 junction (< >). The PPT is indicated by the shaded box. FIG. 2B depicts the quantification of PPT cleavage data. All inhibitors were evaluated at 20 μM.
# IC50 values were determined as previously reported (Budihas, S. R., et al., Nucleic Acids Res., 33(4):1249-56 (2005)), using an 18-nucleotide 3′-flourescein-labeled RNA annealed to a complementary 18-nucleotide 5′-dabsyl-labeled DNA. […] The reaction was initiated by adding 1 μl of 100 mM MgCl2 to 9 μl of mixture containing 4 ng enzyme, 200 nM substrate, 20 μM α-hydroxytropolones in 50 mM Tris, pH 8.0, 80 mM KCl, 2 mM DTT, and 10% DMSO at 37° C., and quenched with 10 μl of a gel-loading buffer after 10 minutes. Hydrolysis products were fractionated by denaturing polyacrylamide gel electrophoresis and visualized by fluorescent imaging (Typhoon Trio+, GE Healthcare, Piscataway, N.J.).
# Since the high-throughput RNase H assay examines non-specific, “polymerase-independent” RNase H activity defined by the spatial separation of the DNA polymerase and RNase H active site of HIV-1 RT (Gopalakrishnan, V., et al., Proc. Natl. Acad. Sci. USA, 89(22):10763-7 (1992)), an examination of whether α-hydroxytropolones altered cleavage specificity on a more biologically-relevant substrate, namely the polypurine tract (PPT) primer, which must be processed from the RNA/DNA replication intermediate to initiate (+) strand DNA synthesis.
# [5] = system: uninfected CEM-SS cells; test: Compound cytotoxicity in uninfected cells (same assay plate); type: cell-based; conditions: for cytotoxicity (in words): up to a concentration of 50 μM; for CC50: uninfected CEM-SS cells, read-out: Virus Replication CC50
# Protocol: as §1
# [6] = HIV-1 RNase H enzymatic activity, sequence-independent RNA/DNA hybrid
# [7] = Human immunodeficiency virus 1, CEM-SS, HIV-1 RF
"EC50 ([2]; Human immunodeficiency virus 1, HIV-1 RF)",Compound,"IC50 [1, 6]",protection against the cytopathic effect of the virus (in words) ([2]; HIV-1 RF),"Virus Replication EC50, protective effect class ([2]; HIV-1 RF)",CC50 [3],inhibition of PPT/U3 cleavage (in words) [4],cytotoxicity (in words) [5],"EC50 [2, 7]",inhibition at 20 µM ([4]; read-out: effectiveness in inhibiting PPT/U3 cleavage),IC50 [1],EC50 ([2]; HIV-1 RF),CC50 [5]
,"CCSCC(C)(O)C1CCc2c(c(C)cc(O)c(=O)c2O)C1 (mixture of isomers) [Compound 6, 2-(2-Ethylthio-1-hydroxy-1-methyl-ethyl)-5,7-dihydroxy-9-methyl-1,2,3,4-tetrahydrobenzocyclohepten-6-one]",0.41 µM,slight protection,"<50% (<50%=protective effect less than 50% of control, i.e. weak activity)",25.8 µM,,,,,,,
,"Cc1cc(O)c(=O)c(O)c2c1CC(C(C)(O)CNCc1ccccc1F)CC2 (mixture of isomers) [Compound 4, 2-[2-(2-Fluoro-benzylamino)-1-hydroxy-1-methyl-ethyl]-5,7-dihydroxy-9-methyl-1,2,3,4-tetrahydrobenzocyclohepten-6-one]",1.4 µM,no protection,,> 50 µM,less active,not cytotoxic,,,,,
,"Cc1cc(O)c(=O)c(O)c2c1CC(C(C)(O)CSc1ccccc1)CC2 (mixture of isomers) [Compound 7, 5,7-Dihydroxy-2-(1-hydroxy-1-methyl-2-phenylthio-ethyl)-9-methyl-1,2,3,4-tetrahydrobenzocyclohepten-6-one]",0.91 µM,showed protection,,17.8 µM,,,11.5 µM,,,,
,"Cc1cc(O)c(=O)c(O)c2c1CC(C(C)NCc1ccccc1)CC2 (mixture of isomers) [Compound 14, 2-(1-Benzylamino-ethyl)-5,7-Dihydroxy-9-methyl-1,2,3,4-tetrahydrobenzocyclohepten-6-one]",1.1 µM,showed protection,,16.7 µM,less active,,10.6 µM,,,,
,"Cc1cc(O)c(=O)c(O)c2c1CC(C(C)O)CC2 (mixture of isomers) [Compound 13, 5,7-Dihydroxy-2-(1-hydroxy-ethyl)-9-methyl-1,2,3,4-tetrahydrobenzocyclohepten-6-one]",0.75 µM,showed protection,,26.1 µM,,,6.9 µM,,,,
,"CCS(=O)(=O)CC(C)(O)C1CCc2c(c(C)cc(O)c(=O)c2O)C1 (mixture of isomers) [Compound 9, 2-(2-Ethanesulfonyl-1-hydroxy-1-methyl-ethyl)-5,7-dihydroxy-9-methyl-1,2,3,4-tetrahydrobenzocyclohepten-6-one]",0.26 µM,slight protection,"<50% (<50%=protective effect less than 50% of control, i.e. weak activity)",10.4 µM,,,,~100%,,,
,"Cc1cc(O)c(=O)c(O)c2c1CC(C(C)(O)CN1CCCCC1)CC2 (mixture of isomers) [Compound 1, 5,7-Dihydroxy-2-(1-hydroxy-1-methyl-2-piperidin-1-yl-ethyl)-9-methyl-1,2,3,4-tetrahydro benzocyclohepten-6-one]",0.93 µM,showed protection,,> 50 µM,,,10.2 µM,,,,
,"Cc1cc(O)c(=O)c(O)c2c1CC(C(C)(O)CS(=O)(=O)c1ccccc1)CC2 (mixture of isomers) [Compound 11, 2-(2-benzenesulfonyl-1-hydroxy-1-methyl-ethyl)-5,7-dihydroxy-9-methyl-1,2,3,4-tetrahydrobenzocyclohepten-6-one]",0.59 µM,showed protection,,> 50 µM,ineffective,,21.2 µM,,,,
,"Cc1cc(O)c(=O)c(O)c2c1CC(C(C)(O)CSCc1ccccc1)CC2 (mixture of isomers) [Compound 8, 2-(2-Benzylthio-1-hydroxy-1-methyl-ethyl)-5,7-dihydroxy-9-methyl-1,2,3,4-tetrahydrobenzocyclohepten-6-one]",1.3 µM,showed protection,,17.4 µM,,,~4.2 µM,,,,
42.1 µM,"Cc1cc(O)c(=O)c(O)c2c1CC(C(C)(O)Cn1ccnc1)CC2 (stereo not drawn) [Compound 2, 5,7-Dihydroxy-2-(1-hydroxy-2-imadazol-1-yl-1-methyl-ethyl)-9-methyl-1,2,3,4-tetrahydro benzocyclohepten-6-one]",,showed protection,,> 50 µM,less active,,,,,,
,"CC(C)c1ccc(O)c(=O)c(O)c1 [β-Thujaplicinol, reference compound]",,no protection,,,,,,,0.21 µM,2.3 µM,2.3 µM
,"Cc1cc(O)c(=O)c(O)c2c1CC(C(C)(O)CO)CC2 (mixture of isomers) [Compound 12, 2-(1,2-Dihydroxy-1-methyl-ethyl)-5,7-dihydroxy-9-methyl-1,2,3,4-tetrahydrobenzocyclohepten-6-one]",1.9 µM,no protection,,,,not cytotoxic,,,,,> 50 µM
,"CCN(CC)CC(C)(O)C1CCc2c(c(C)cc(O)c(=O)c2O)C1 (mixture of isomers) [Compound 3, 2-(2-Diethylamino-1-hydroxy-1-methyl-ethyl)-5,7-dihydroxy-9-methyl-1,2,3,4-tetrahydrobenzocyclohepten-6-one]",0.49 µM,slight protection,"<50% (<50%=protective effect less than 50% of control, i.e. weak activity)",> 50 µM,ineffective,,,,,,
